# Data from patent US10183015B2, “Heterocyclic compounds and methods of use” (Medivation Technologies LLC, priority 2015, dated 2019).
# Values joined by “and” are separate entries in the source; they are usually repeats but may differ in a detail not shown here. Equal entries are not always repeated.
# Tests used:
# LDLR = experiment: Short-term Paigen-diet NASH mouse model: hepatic LDLR gene expression (RT-qPCR); format: in vivo; settings: liver; for DDct: LDLR Dct relative to vehicle mean; for Dct: LDLR minus 18S; for 2DDct: LDLR relative expression to vehicle group, normalized to 18S; for LDLR: raw RT-qPCR value
# Method: To investigate whether Compound #37 prevents the development of pathology associated with NASH and steatosis in an acute exploratory disease model, a study was conducted using a diet-induced acute liver steatosis model in mice. As described below, in this study, C57BL/6J mice were initiated on the Paigen diet and simultaneously treated with Compound #37 (5, 20, and 40 mg/kg/day) or vehicle control (20% HPβCD 10 mL/kg/day) by oral gavage for 21 days.
# After acclimation, 8-week old male C57Bl/6J mice (Charles River) weighing about 25 g were randomized in 4 groups according their body weight and treated once daily around noon by oral gavage with vehicle, or Compound #37 at various for 21 days as follows: Group 1: vehicle-20% (2-hydroxypropyl)-β-cyclodextrin (HP-β-CD) (n=10); Group 2: Compound #37, 5 mg/kg (n=10) Group 3: Compound #37, 20 mg/kg (n=10) Group 4: Compound #37, 40 mg/kg (n=10). During the treatment period, body weight and food intake (measured over 24h) were measured 3 times per week and once a week, respectively. During the acclimation, all mice were fed a standard diet (Special Diets Services RM1 (E), product no. 801492) and tap water ad libitum. After the acclimation period, mice were fed until the end of the experiment with a 60% high fat Paigen diet (60 kcal % fat, 1.25% cholesterol, and 0.5% cholate; D11061901, Research Diet) and tap water ad libitum.
# (§1) Gene expression analysis. Hepatic expression levels of genes involved in lipid metabolism (FAS, SREBP1, ACC1, SCD1), cholesterol metabolism (HMG-CoAR, LDLR), SREBP proteolysis (SCAP, INSIG1), ER stress (PERK), oxidative stress (NRF2), inflammation (MCP-1), and fibrosis (collagen 1α1) were quantified by RTqPCR. Expression level was normalized to 18S gene expression and relative expression to vehicle group was calculated with the […] method.
# SCAP = experiment: DIN mouse model: hepatic SCAP gene expression; format: in vivo; parameters: key to 2^DDct: expression relative to vehicle group, normalized to 18S; settings: 20 mg/kg group; for 18S: Gene Expression: SCAP table, 18S reference; for 2^DDct / DDct / Dct / SCAP: Gene Expression: SCAP
# Method: as §1
# Male C57Bl/6J mice (8 weeks old) were housed in enriched ventilated cages (31×12.5×12.7 cm) throughout the experimental phase. Animals' cages litters were changed at least once a week. Animal were housed 5 per cage on inverted 12-hour light cycle (at 09:00 am lights off), 22±2° C. and 55±10% relative humidity. The acclimation period was 20 days. During the acclimation period, all mice were fed a standard diet (RM1 (E) 801492, SDS) and tap water ad libitum. After the acclimation period, mice were fed with the DIN diet (60% fat, cholesterol enriched) and fructose-enriched tap water ad libitum until the end of the experiment.
# At 6 weeks of diet, mice were 4-hour fasted (09:00 am to 1:00 pm) and blood (150 μl/EDTA) was collected at 01:00 pm by retro-orbital bleeding under isoflurane anesthesia. Mice were then allocated in 2 homogenous groups (n=12/group) according to their plasma levels of ALT (average levels: 685U/L), AST (average levels: 627U/L) and HOMA-IR index (average value: 4.7), into 2 homogenous groups (see values at day 0 in Tables 15A and 15B ALT/AST and Tables 16A and 16B for HOMA-IR). Mice were then treated once daily by oral gavage with vehicle (Group 1) or Compound #37 at 20 mg/kg (Group 2) for 70 days.
# Hepatic expression levels of genes involved in lipid (FAS, SREBP1, ACC1, SCD1), cholesterol metabolism (HMG-CoAR, LDLR), in SREBP proteolysis (SCAP, INSIG1), in ER stress (PERK), oxidative stress (NRF2), and inflammation (MCP-1) were not changed. However, expression of collagen 1α1, involved in liver fibrosis, was reduced by 66% in mice treated with Compound #37 (p<0.05 vs. vehicle).
# ob/ob mice = experiment: ob/ob mice: plasma triglycerides, non-esterified fatty acids, total cholesterol, insulin; format: in vivo, mouse; settings: 8 weeks
# Method: Groups of mice were either untreated (group 1) or treated for 8 weeks with vehicle (group 2), or with Compound #37 at 5 mg/kg (group 3), 10 mg/kg (group 4), or 20 mg/kg (group 5). Treatment was daily by oral gavage in vehicle (20% HPβCD). Values are presented as mean±standard error of the mean (sem). A t test was performed to compare the untreated group and the vehicle group. Then Compound #37-treated groups were compared to the vehicle-treated group with a 1-way ANOVA+Dunnett's post-test. […] For each test, a p<0.05 was considered significant. Of note, animal #39, group 1 was excluded from the statistical analysis, due to low values for all parameters measured. Some other values were considered as out-liners and excluded from the statistical analysis when the value was far below the mean minus 2 SD. Excluded values are marked with an asterisk in Tables 21-23.
# [1] = Compound #37 5 mg/kg, group mean, n=10
# [2] = Compound #37 5 mg/kg, individual animals, 5 mg/kg
# [3] = Compound #37 20 mg/kg, group mean, n=6
# [4] = Compound #37 20 mg/kg, individual animals, 20 mg/kg
# [5] = 5 mg/kg daily oral gavage, group mean
# [6] = 5 mg/kg daily oral gavage, individual animal values, 5 mg/kg
# [7] = 10 mg/kg daily oral gavage, group mean
# [8] = 10 mg/kg daily oral gavage, individual animal values, 10 mg/kg
# [9] = 20 mg/kg daily oral gavage, group mean
# [10] = 20 mg/kg daily oral gavage, individual animal values, 20 mg/kg
structure (smiles),measurement,setting,value
"CC(C)Cc1cc(-c2nc(-c3ccc(NS(=O)(=O)C(F)(F)F)cc3Cl)cs2)ccn1 [Compound 37, N-(3-chloro-4-(2-(2-isobutylpyridin-4-yl)thiazol-4-yl)phenyl)-1,1,1-trifluoromethanesulfonamide]",DDct,LDLR; [1],0.18
same,DDct,LDLR; [2],−0.92 and 0.13 and −0.60 and −0.98 and 1.46 and 1.39 and 0.04 and 0.33 and 0.52 and 0.37
same,DDct,LDLR; [3],−0.09
same,DDct,LDLR; [4],0.38 and 0.91 and 0.32 and −1.22 and 0.42 and −1.37
same,Dct,LDLR; [1],12.8
same,Dct,LDLR; [2],11.74 and 12.79 and 12.06 and 11.68 and 14.12 and 14.05 and 12.7 and 12.99 and 13.18 and 13.03
same,Dct,LDLR; [3],12.6
same,Dct,LDLR; [4],13.04 and 13.57 and 12.98 and 11.44 and 13.08 and 11.29
same,2DDct,LDLR; [1],1.03
same,2DDct,LDLR; [2],1.89 and 0.91 and 1.51 and 1.97 and 0.36 and 0.38 and 0.97 and 0.79 and 0.70 and 0.77
same,2DDct,LDLR; [3],1.29
same,2DDct,LDLR; [4],0.77 and 0.53 and 0.80 and 2.33 and 0.75 and 2.58
same,LDLR,LDLR; [1],25.1
same,LDLR,LDLR; [2],25.2 and 25.9 and 23.67 and 25.03 and 26.15 and 27.4 and 24.3 and 24.78 and 24.32 and 24.15
same,LDLR,LDLR; [3],24.8
same,LDLR,LDLR; [4],25.95 and 25.86 and 25.18 and 24.47 and 24.57 and 22.55
same,18S,"SCAP; individual animal, 20 mg/kg",12.55 (2×) and 12.84 and 12.43 and 12.35 (2×) and 12.59 and 11.73 and 12.51 and 11.5 and 11.55
same,18S,"SCAP; mean, n 11",12.3
same,2^DDct,"SCAP; individual animal, 20 mg/kg",1.37 and 1.72 (2×) and 0.65 and 0.71 and 0.91 and 1.46 and 1.39 and 0.64 and 0.59 and 1.60
same,DDct,"SCAP; individual animal, 20 mg/kg",−0.45 and −0.78 (2×) and 0.63 and 0.49 and 0.13 and −0.54 and −0.47 and 0.65 and 0.77 and −0.68
same,Dct,"SCAP; individual animal, 20 mg/kg",11.61 and 11.28 (2×) and 12.69 and 12.55 and 12.19 and 11.52 and 11.59 and 12.71 and 12.83 and 11.38
same,SCAP,"SCAP; individual animal, 20 mg/kg",24.16 and 23.83 and 25.53 and 24.98 and 24.54 and 24.11 and 23.32 and 23.79 and 24.21 and 24.38 and 23.73
same,2^DDct,"SCAP; mean, n 11",1.16
same,DDct,"SCAP; mean, n 11",−0.10
same,Dct,"SCAP; mean, n 11",12.0
same,SCAP,"SCAP; mean, n 11",24.2
same,plasma insulin,ob/ob mice; [5],274.1 μU/mL
same,plasma non-esterified fatty acids,ob/ob mice; [5],0.7 mM
same,plasma total cholesterol,ob/ob mice; [5],1.8 g/L
same,plasma triglycerides,ob/ob mice; [5],1.6 g/L
same,plasma insulin,"ob/ob mice; 5 mg/kg daily oral gavage, individual animal values (* = excluded from statistical analysis), 5 mg/kg",198.7 μU/mL and 262.7 μU/mL and 181.1 μU/mL and 250.5 μU/mL and 118.7 μU/mL and 394.6 μU/mL and 24.6* μU/mL and 374.6 μU/mL and 512.6 μU/mL and 173.1 μU/mL
same,plasma non-esterified fatty acids,ob/ob mice; [6],1.028 mM and 0.77 mM and 0.616 mM and 0.552 mM and 0.68 mM (2×) and 1.092 mM and 0.783 mM and 0.655 mM and 0.539 mM
same,plasma total cholesterol,ob/ob mice; [6],1.587 g/L and 1.903 g/L and 1.916 g/L and 1.853 g/L and 2.017 g/L and 1.537 g/L and 2.08 g/L and 1.625 g/L and 1.347 g/L and 1.638 g/L
same,plasma triglycerides,ob/ob mice; [6],1.283 g/L and 1.152 g/L and 1.038 g/L and 1.397 g/L (2×) and 1.593 g/L and 1.201 g/L and 1.609 g/L and 2.408 g/L and 2.504 g/L
same,plasma insulin,ob/ob mice; [7],357.3 μU/mL
same,plasma non-esterified fatty acids,ob/ob mice; [7],0.7 mM
same,plasma total cholesterol,ob/ob mice; [7],1.7 g/L
same,plasma triglycerides,ob/ob mice; [7],1.3 g/L
same,plasma insulin,ob/ob mice; [8],123.8 μU/mL and 457.7 μU/mL and 81.9 μU/mL and 949.0 μU/mL and 153.3 μU/mL and 62.6 μU/mL and 508.2 μU/mL and 904.4 μU/mL and 194.4 μU/mL and 137.5 μU/mL
same,plasma non-esterified fatty acids,ob/ob mice; [8],1.009 mM and 0.474 mM and 0.828 mM and 0.7 mM and 0.564 mM and 0.951 mM and 0.738 mM and 0.661 mM and 0.809 mM and 0.307 mM
same,plasma total cholesterol,ob/ob mice; [8],1.587 g/L and 1.865 g/L (2×) and 1.891 g/L (2×) and 1.827 g/L (2×) and 1.234 g/L and 1.651 g/L and 1.183 g/L
same,plasma triglycerides,ob/ob mice; [8],0.94 g/L and 1.12 g/L and 0.875 g/L and 1.218 g/L and 1.528 g/L and 1.299 g/L and 1.968 g/L and 1.381 g/L and 1.593 g/L and 0.777 g/L
same,plasma insulin,ob/ob mice; [9],444.1 μU/mL
same,plasma non-esterified fatty acids,ob/ob mice; [9],0.5 mM
same,plasma total cholesterol,ob/ob mice; [9],1.5 g/L
same,plasma triglycerides,ob/ob mice; [9],1.5 g/L
same,plasma insulin,ob/ob mice; [10],447.3 μU/mL and 10.5 μU/mL and 730.1 μU/mL and 505.0 μU/mL and 254.3 μU/mL and 881.0 μU/mL and 810.7 μU/mL and 483.7 μU/mL and 62.6 μU/mL and 256.2 μU/mL
same,plasma non-esterified fatty acids,ob/ob mice; [10],0.429 mM and 0.642 mM and 0.494 mM and 0.481 mM and 0.423 mM (2×) and 0.513 mM and 0.397 mM and 0.687 mM and 0.597 mM
same,plasma total cholesterol,ob/ob mice; [10],1.234 g/L and 0.893 g/L and 1.499 g/L and 1.714 g/L and 1.663 g/L (2×) and 1.625 g/L and 1.587 g/L and 1.36 g/L and 1.272 g/L
same,plasma triglycerides,ob/ob mice; [10],0.875 g/L and 1.886 g/L and 1.511 g/L (2×) and 1.642 g/L and 1.854 g/L and 1.283 g/L and 1.308 g/L and 1.381 g/L and 1.968 g/L
